Test results published in patent publication US11091450B2, “Crystal of a caspase inhibitor” (Chia Tai Tianqing Pharmaceutical Group Co., Ltd., priority 2018, dated 2021).
In brackets after ≈: the same amount, converted by molar mass. Each block holds one compound with its values, some of them ahead of it.

Legend:
Caspase-1 = molecular target: T1, Caspase-1 (Homo sapiens, UniProt P29466); test: Caspase-1 Inhibitor Screening Kit (BioVision), fluorogenic substrate; assay type: biochemical; details: 30 min preincubation at 37° C., substrate 50 μM; read-out: Caspase-1 enzymatic activity (IC50)
T1 construct: purchased BioVision K151-100
T1 sequence (P29466 120-297 limits assumed): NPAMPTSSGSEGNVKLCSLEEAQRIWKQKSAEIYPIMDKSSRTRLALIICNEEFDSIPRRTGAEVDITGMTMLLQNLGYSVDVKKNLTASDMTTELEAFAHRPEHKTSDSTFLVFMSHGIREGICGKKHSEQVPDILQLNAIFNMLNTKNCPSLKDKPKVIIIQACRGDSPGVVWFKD
T1 sequence (P29466 317-404 limits assumed): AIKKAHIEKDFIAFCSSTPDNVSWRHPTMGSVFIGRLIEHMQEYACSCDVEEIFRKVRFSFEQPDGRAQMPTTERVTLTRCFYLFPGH
Description: (§1) Caspase Inhibitor Screening Kit for BioVision was used in this experiment to test the inhibitory activity of the test compound on Caspase.
(§2) • 1) Kit: • Caspase-1 Inhibitor Screening Kit (BioVision #K151-100) • Caspase-3 Inhibitor Screening Kit (BioVision #K153-100) • Caspase-8 Inhibitor Screening Kit (BioVision #K158-100) • Wherein, each caspase enzymatic experiment uses the reagents in corresponding kit thereof. Each enzyme was dissolved in 550 μl of the corresponding 2× reaction buffer, sub-packed and stored at −80° C., respectively. • 2) Black 384-well plate (PerkinElmer #6007279) • 3) Instrument: Multi-function microplate reader Molecular Devices (Model: SpectraMax M2e) Experimental Method: • 1) The compound of formula I-A was diluted to a 200* test concentration with DMSO via the multiple dilution, then to a 2* test concentration with ddH2O, and added to a 384-well experimental plate at 12.5 μl per well. […] After the substrate was added, the 384-well experimental plate was incubated at 37° C. for 30 minutes. • 4) The fluorescence intensity (excitation light wavelength was 400 nm, emission light wavelength was 505 nm) was measured by using a multi-function microplate reader. Fluorescence intensity was used to calculate the inhibitory effect of the compounds on Caspase. […]

Caspase-3 = molecular target: T2, Caspase-3 (Homo sapiens, UniProt P42574); test: Caspase-3 Inhibitor Screening Kit (BioVision), fluorogenic substrate; assay type: biochemical; details: 30 min preincubation at 37° C., substrate 50 μM; read-out: Caspase-3 enzymatic activity (IC50)
T2 construct: purchased BioVision K153-100
T2 sequence (P42574 29-175 limits assumed): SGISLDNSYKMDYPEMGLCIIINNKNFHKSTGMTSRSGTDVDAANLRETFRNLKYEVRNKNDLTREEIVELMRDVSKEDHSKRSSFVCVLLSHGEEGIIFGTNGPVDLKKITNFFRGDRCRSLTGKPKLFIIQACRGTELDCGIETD
T2 sequence (P42574 176-277 limits assumed): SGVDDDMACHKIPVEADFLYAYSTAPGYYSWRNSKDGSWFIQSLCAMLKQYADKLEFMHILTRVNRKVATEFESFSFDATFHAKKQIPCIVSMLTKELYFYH
Description: as §1, §2

Caspase-8 = molecular target: T3, Caspase-8 (Homo sapiens, UniProt Q14790); test: Caspase-8 Inhibitor Screening Kit (BioVision), fluorogenic substrate; assay type: biochemical; details: 30 min preincubation at 37° C., substrate 50 μM; read-out: Caspase-8 enzymatic activity (IC50)
T3 construct: purchased BioVision K158-100
Description: as §1, §2

[1] = Solubility test of crystal IV in different pH medium solutions; assay type: physicochemical; details: thermodynamic from solid, 37° C.
Description: 2 ml of pH medium solutions were transferred into 4 ml glass bottle respectively, and then 8 mg of crystal IV of the compound of formula I-A was added thereto. It was stirred and heated on a magnetic stirrer, and the temperature was kept at 37° C. After 4 hours and 24 hours, 1 mL of sample was taken and centrifuged rapidly, respectively. The pH value of the supernatant was determined, and the supernatant was diluted with diluent. The concentration was determined by HPLC.

[2] = Solid stability test of crystal IV (temperature, humidity, light; HPLC impurities); assay type: physicochemical
Description: 8 mg of crystal IV of the compound of formula I-A was taken, weighed accurately, placed in the sample vial and spread into a thin layer. The samples at day 0 were sealed with the bottle cap and further sealed with the sealing film, followed by storing in the refrigerator at −20° C. The stability of the samples was tested under 60° C., 92.5% RH, 25° C./60% RH, 40° C./75% RH, 60° C./75% RH and light conditions, respectively.
Analysis method: Agilent 1260 High Performance Liquid Chromatography equipped with DAD detector or Waters 2695 High Performance Liquid Chromatography equipped with PDA detector was used; chromatographic column: Waters Xselect CSH C18 (4.6 mm×150 mm, 3.5 μm), column temperature: 40° C., flow rate: 1.0 ml/min, detection wavelength: 215 nm, injection volume: 10 μL, sample concentration: 0.5 mg/mL, diluent: methanol, and the gradient of mobile phases in Table 9 was used for analysis.

[3] = aqueous buffer, pH = 4.5 Buffer, supernatant pH 4.67
[4] = aqueous buffer, pH = 5.5 Buffer, supernatant pH 5.55
[5] = aqueous buffer, pH = 6.0 Buffer, supernatant pH 6.04

T3 sequence (Q14790 217-374 limits assumed): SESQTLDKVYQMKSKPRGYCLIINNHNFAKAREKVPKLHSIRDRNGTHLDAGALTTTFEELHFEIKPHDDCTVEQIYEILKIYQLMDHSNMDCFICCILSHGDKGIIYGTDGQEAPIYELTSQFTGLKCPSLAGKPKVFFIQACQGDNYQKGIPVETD
T3 sequence (Q14790 385-479 limits assumed): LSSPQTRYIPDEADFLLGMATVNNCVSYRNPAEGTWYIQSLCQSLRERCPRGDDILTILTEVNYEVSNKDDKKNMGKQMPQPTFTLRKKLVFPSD

- IC50 (Caspase-1): 4.6 nM
- IC50 (Caspase-3): 13 nM
- IC50 (Caspase-8): 10.3 nM
SMILES: C[C@H](NC(=O)c1cc(-c2ccccc2Cl)on1)C(=O)N[C@@H](CC(=O)O)C(=O)COc1c(F)c(F)cc(F)c1F [Compound of formula I-A, (S)-3-((S)-2-(5-(2-chlorophenyl)isoxazol-3-carboxamido)propionamido)-4-oxo-5-(2,3,5,6-tetrafluorophenoxy)pentanoic acid]

- solubility at 4 h ([1]; 0.01 N HCl buffer, simulated gastric fluid, 0.01N of HCl Buffer, supernatant pH 2.01): 5 µg/mL (≈ 8.74 µM)
- solubility at 24 h ([1]; 0.01 N HCl buffer, simulated gastric fluid, 0.01N of HCl Buffer, supernatant pH 2.07): 6 µg/mL (≈ 10.5 µM)
- solubility at 4 h ([1]; 0.1 N HCl buffer, simulated gastric fluid, 0.1N of HCl Buffer, supernatant pH 1.07): 5 µg/mL (≈ 8.74 µM)
- solubility at 24 h ([1]; 0.1 N HCl buffer, simulated gastric fluid, 0.1N of HCl Buffer, supernatant pH 1.11): 6 µg/mL (≈ 10.5 µM)
- solubility at 4 h ([1]; aqueous buffer, pH = 3.8 Buffer, supernatant pH 3.97): 7 µg/mL (≈ 12.2 µM)
- solubility at 24 h ([1]; aqueous buffer, pH = 3.8 Buffer, supernatant pH 3.99): 8 µg/mL (≈ 14 µM)
- solubility at 4 h [1, 3]: 16 µg/mL (≈ 28 µM)
- solubility at 24 h [1, 3]: 16 µg/mL (≈ 28 µM)
- solubility at 4 h [1, 4]: 268 µg/mL (≈ 469 µM)
- solubility at 24 h [1, 4]: 254 µg/mL (≈ 444 µM)
- solubility at 4 h [1, 5]: 372 µg/mL (≈ 651 µM)
- solubility at 24 h [1, 5]: 340 µg/mL (≈ 595 µM)
- solubility at 4 h ([1]; aqueous buffer, pH = 6.8 Buffer, supernatant pH 6.71): 775 µg/mL (≈ 1360 µM)
- solubility at 4 h ([1]; aqueous buffer, pH = 7.4 Buffer, supernatant pH 7.28): 1700 µg/mL (≈ 2970 µM)
- solubility at 24 h ([1]; aqueous buffer, pH = 7.4 Buffer, supernatant pH 7.24): 1620 µg/mL (≈ 2830 µM)
- solubility at 24 h ([1]; pH 6.7, aqueous buffer, pH = 6.8 Buffer, supernatant pH 6.70): 702 µg/mL (≈ 1230 µM)
- solubility at 4 h ([1]; Water, supernatant pH 7.83): 339 µg/mL (≈ 593 µM)
- solubility at 24 h ([1]; Water, supernatant pH 7.34): 266 µg/mL (≈ 465 µM)
- Appearance ([2]; 25° C./60% RH, 10 days): White solid powder
- Total Impurities (%) ([2]; 25° C./60% RH, 10 days): 0.20%
- Property ([2]; 25° C./92.5% Relative Humidity (Exposure)): White solid
- Appearance ([2]; 40° C./75% RH, 10 days): White solid powder
- Total Impurities (%) ([2]; 40° C./75% RH, 10 days): 0.19%
- Property ([2]; 60° C. (Exposure)): White solid
- Appearance ([2]; 60° C./75% RH, 10 days): White solid powder
- Total Impurities (%) ([2]; 60° C./75% RH, 10 days): 0.48%
- Property ([2]; Light): White solid
- Crystal ([2]; crystal form after 25° C./60% RH, 10 days): Crystal IV
- Crystal ([2]; crystal form after 25° C./92.5% Relative Humidity (Exposure)): Crystal IV
- Crystal ([2]; crystal form after 40° C./75% RH, 10 days): Crystal IV
- Crystal ([2]; crystal form after 60° C. (Exposure)): Crystal IV
- Crystal ([2]; crystal form after 60° C./75% RH, 10 days): Crystal IV
- Crystal ([2]; crystal form after Light): Crystal IV
- total impurities produced ([2]; high temperature and high humidity conditions (summary of Table 10)): ≤ 0.5%
- stability under high temperature and high humidity conditions ([2]; summary of Table 10): stable
- hygroscopicity ([2]; summary of Table 11): low hygroscopicity
- stability under high temperature and light conditions ([2]; summary of Table 11): good stability
SMILES: C[C@H](NC(=O)c1cc(-c2ccccc2Cl)on1)C(=O)N[C@@H](CC(=O)O)C(=O)COc1c(F)c(F)cc(F)c1F [crystal IV, (S)-3-((S)-2-(5-(2-chlorophenyl)isoxazol-3-carboxamido)propionamido)-4-oxo-5-(2,3,5,6-tetrafluorophenoxy)pentanoic acid]
